The target in one assay is T1, human CPT1A (Homo sapiens, UniProt P50416).
T1 construct: made in house; host or cells: Saccharomyces cerevisiae (pESC-trp) or cultured mammalian cells (pCDNA3.1); mitochondrial extract
T1 sequence (P50416 1-773): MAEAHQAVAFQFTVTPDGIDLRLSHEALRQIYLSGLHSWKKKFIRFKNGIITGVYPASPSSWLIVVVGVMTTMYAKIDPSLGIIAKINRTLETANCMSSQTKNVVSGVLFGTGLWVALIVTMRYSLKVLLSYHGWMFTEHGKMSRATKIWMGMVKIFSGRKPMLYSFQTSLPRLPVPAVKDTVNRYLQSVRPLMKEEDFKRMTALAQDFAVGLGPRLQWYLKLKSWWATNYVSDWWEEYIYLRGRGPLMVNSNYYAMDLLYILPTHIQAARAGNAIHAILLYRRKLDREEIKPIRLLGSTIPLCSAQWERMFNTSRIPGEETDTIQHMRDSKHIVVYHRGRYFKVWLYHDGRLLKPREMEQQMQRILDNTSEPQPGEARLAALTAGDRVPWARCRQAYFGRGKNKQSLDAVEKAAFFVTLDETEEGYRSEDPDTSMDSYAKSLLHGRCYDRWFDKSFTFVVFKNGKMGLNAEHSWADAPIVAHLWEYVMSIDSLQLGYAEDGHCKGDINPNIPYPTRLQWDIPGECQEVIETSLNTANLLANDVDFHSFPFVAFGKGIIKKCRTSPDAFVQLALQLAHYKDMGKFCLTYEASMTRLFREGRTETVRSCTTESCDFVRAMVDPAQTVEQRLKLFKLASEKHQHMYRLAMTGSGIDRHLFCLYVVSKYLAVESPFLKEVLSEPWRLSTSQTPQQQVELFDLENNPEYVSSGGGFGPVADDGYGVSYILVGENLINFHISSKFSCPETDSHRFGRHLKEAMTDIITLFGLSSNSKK
The assay can be described thus: Human CPT1A LC/MS assay. The class given is biochemical. As to conditions: human CPT1A LC/MS assay, dose response format.

In the next assay the test system is A549. The assay is described as follows: Cancer cell growth inhibition, SRB assay. The class given is cell-based, human. Particulars: Homo sapiens, 144 h; A549 (Lung); SRB at Day 6; triplicate. (In general: The SRB assay estimates cell density from bound dye.)
For another assay, the system named is COLO-205. The assay is described as follows: Cancer cell growth inhibition, SRB assay. The class given is cell-based, human. As to conditions: Homo sapiens, 144 h; COLO-205 (Colon); SRB at Day 6; triplicate.

Consider `CCCCCCCCc1ccc(NS(=O)(=O)NC2(CC(=O)O)CC[N+](C)(C)CC2)cc1` [Example S8, 4-(carboxymethyl)-1,1-dimethyl-4-(N-(4-octylphenyl)sulfamoylamino)piperidinium 2,2,2-trifluoroacetate], for which the IC50 against human CPT1A was in the range of 1 to 10 µM. Besides, the results for the GI50 in the assay on A549 and with COLO-205 were 10 µM and 5.3 µM, respectively.

`CCCCCCCCc1ccc(N(C)S(=O)(=O)NC2(CC(=O)O)CCC[N+](C)(C)C2)cc1` (stereo not drawn) [Example S30, 3-(carboxymethyl)-1,1-dimethyl-3-(N-methyl-N-(4-octylphenyl)-sulfamoylamino)piperidinium 2,2,2-trifluoroacetate] returned an IC50 against human CPT1A of 10 to 100 µM. Besides, the results for the GI50 with A549 and with COLO-205 were 1 µM and 1.6 µM, respectively.

On to `CCCCCCCCc1ccc(NS(=O)(=O)NC2(CC(=O)O)CCCN(C)C2)cc1` (stereo not drawn) [Example S15, 3-(carboxymethyl)-1-methyl-3-(N-(4-octylphenyl)sulfamoylamino)-piperidinium 2,2,2-trifluoroacetate], for which the IC50 against human CPT1A is 10 to 100 µM. The values for the GI50 in the assay with A549 and in the assay on COLO-205 were 7.5 µM and 21 µM, respectively.

What is called IC50 is the point on the concentration scale where inhibition reaches its midpoint. What is called GI50 is the concentration at which growth is held to half of that of the control. Read a high GI50 as less potent growth inhibition.

The values are drawn from patent US8680282B2, “Cyclic inhibitors of carnitine palmitoyltransferase and treating cancer” (University Health Network, priority 2007, dated 2014).
